These results are taken from the supplement of paper PMC7394473.

Details in all cases: 72 h
Assay [1] deals with U2OS. Kind of assay: GR50 (concentration giving GR = 0.5). The protocol:
(§1)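 U2OS cells treated with full dose titrations of drug; live and dead cells counted by STACK microscopy (mKate2 nuclei, SYTOX Green) at 72 h, biological triplicates. GR and FV dose responses were fitted with 4-parameter logistic models (GR lower bound -1). GRADE (0-100) is the rescaled angle of a linear fit of FV versus GR at doses with GR >= 0, giving the percentage of the response due to cell death.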

Assay [2] deals with U2OS. As to the kind of experiment: fractional viability (live cells / total cells); higher = less cell death. The protocol: (§2)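 U2OS::Nuc-mKate2 cells seeded in 96-well plates and treated with eight- to ten-point half-log or log dilutions of drug in the presence of 50 nM SYTOX Green. Live (mKate2+) and dead (SYTOX+) cells were counted by IncuCyte STACK live-cell microscopy at 72 h; biological triplicates. GR is the normalised growth-rate inhibition value (Hafner 2016; 1 = untreated growth, <0 = population shrinking). FV is live/(live+dead) cells, not normalised.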

Assay [3] deals with U2OS. Kind of assay: FV IC50 (concentration giving fractional viability 0.5); higher = less potent killing. The protocol:
as §1

For assay [4], the system named is U2OS. As to the kind of experiment: drug GRADE (percent of response due to cell death) (% (0-100)); higher = more death-driven response. The protocol:
as §1

Assay [5] deals with U2OS. As to the kind of experiment: GRmin (fitted minimal GR value at highest effect) (GR value (dimensionless)); higher = less efficacious. As for the experimental part: as §1
Assay [6] relates to U2OS. Kind of assay: normalized growth rate inhibition value (GR) relative to untreated cells (GR value (dimensionless, 1 = untreated growth)); higher = less growth inhibition. As for the experimental part: as §2

Consider `CCNC(=O)c1noc(-c2cc(C(C)C)c(O)cc2O)c1-c1ccc(CN2CCOCC2)cc1` [Luminespib], for which the GR50 in the assay on U2OS [1] amounted to 0.00564 µM. Besides, the fractional viability is 0.99 in the assay with U2OS [2] (0.000100578 µM); 0.99 in the assay with U2OS [2] (0.000317827 µM); 0.989 with U2OS [2] (0.00100433 µM); 0.983 with U2OS [2] (0.00317369 µM); 0.844 in the assay with U2OS [2] (0.0100289 µM); 0.419 with U2OS [2] (0.0316912 µM). Also, the fractional viability in the assay on U2OS [2] (0.100144 µM) turned out to be 0.436; in the assay with U2OS [2] (0.316456 µM), 0.464; in the assay with U2OS [2] (1 µM) it was 0.442. In addition, the “FV IC50” value with U2OS [3] is 18.6 nM. Further, the “drug GRADE” value in the assay with U2OS [4] came to 17.6. Further, in the assay on U2OS [5], the GRmin is -0.319. The “normalized growth rate inhibition value” in the assay with U2OS [6] (0.000100578 µM) is 0.869; in the assay on U2OS [6] (0.000317827 µM), 0.878; in the assay with U2OS [6] (0.00100433 µM), 0.876; in the assay on U2OS [6] (0.00317369 µM), 0.809; in the assay on U2OS [6] (0.0100289 µM), -0.00384; in the assay on U2OS [6] (0.0316912 µM) it was -0.331. Further, the figures for the “normalized growth rate inhibition value” in the assay with U2OS [6] (0.100144 µM), with U2OS [6] (0.316456 µM) and in the assay with U2OS [6] (1 µM) were -0.365, -0.239 and -0.331, respectively.
Take `CC(C)C[C@@H](C=O)NC(=O)[C@H](CC(C)C)NC(=O)[C@H](CC(C)C)NC(=O)OCc1ccccc1` [MG-132]: the GR50 in the assay with U2OS [1] is 1.03 µM. For the same compound, the fractional viability with U2OS [2] (0.01 µM) was 0.973; in the assay with U2OS [2] (0.0316 µM) it was 0.977; in the assay on U2OS [2] (0.1 µM), 0.979; with U2OS [2] (0.316 µM), 0.974; in the assay with U2OS [2] (1 µM) it was 0.929; with U2OS [2] (3.16 µM), 0.226. The fractional viability with U2OS [2] (10 µM) came out at 0.00177; in the assay on U2OS [2] (31.6 µM), 0. The “FV IC50” value with U2OS [3] was 2240 nM. In addition, in the assay on U2OS [4], the “drug GRADE” value turned out to be 13.5. In the assay on U2OS [5], this compound came in with a GRmin of -0.949. For the same compound, the “normalized growth rate inhibition value” with U2OS [6] (0.01 µM) is 1.02; in the assay with U2OS [6] (0.0316 µM), 1.01; with U2OS [6] (0.1 µM), 0.929; in the assay with U2OS [6] (0.316 µM) it was 0.9; with U2OS [6] (1 µM), 0.524; in the assay with U2OS [6] (3.16 µM), -0.442. In addition, the entries for the “normalized growth rate inhibition value” in the assay on U2OS [6] (10 µM) and in the assay with U2OS [6] (31.6 µM) were -0.885 and -0.93, respectively.
Compound `C=CCn1c(=O)c2cnc(Nc3ccc(N4CCN(C)CC4)cc3)nc2n1-c1cccc(C(C)(C)O)n1` [MK1775] registered a GR50 in the assay with U2OS [1] of 0.156 µM. For the same compound, the fractional viability in the assay with U2OS [2] (0.01 µM) was 0.978; in the assay with U2OS [2] (0.0316 µM) it was 0.977; in the assay with U2OS [2] (0.1 µM), 0.948; in the assay with U2OS [2] (0.316 µM), 0.725; in the assay with U2OS [2] (1 µM), 0.294; in the assay on U2OS [2] (3.16 µM) it was 0.125. Moreover, the fractional viability in the assay with U2OS [2] (10 µM) is 0.0517; with U2OS [2] (31.6 µM), 0.0225. Moreover, the “FV IC50” value in the assay on U2OS [3] amounted to 584 nM. For the same compound, the “drug GRADE” value in the assay with U2OS [4] is 40.7. Further, the GRmin in the assay on U2OS [5] was -0.689. The “normalized growth rate inhibition value” in the assay with U2OS [6] (0.01 µM) was 1.15; in the assay on U2OS [6] (0.0316 µM), 1.03; in the assay with U2OS [6] (0.1 µM), 0.664; in the assay with U2OS [6] (0.316 µM) it was 0.061; with U2OS [6] (1 µM) it was -0.346; in the assay with U2OS [6] (3.16 µM), -0.56. For the same compound, the “normalized growth rate inhibition value” was -0.681 in the assay with U2OS [6] (10 µM) and -0.762 with U2OS [6] (31.6 µM).
`CCOc1cc2ncc(C#N)c(Nc3ccc(OCc4ccccn4)c(Cl)c3)c2cc1NC(=O)/C=C/CN(C)C` [Neratinib]: in the assay on U2OS [1], the GR50 was found to be 0.346 µM. Moreover, the fractional viability in the assay on U2OS [2] (0.000317827 µM) was 0.985; in the assay with U2OS [2] (0.00100433 µM), 0.987; in the assay on U2OS [2] (0.00317369 µM), 0.985; in the assay with U2OS [2] (0.0100289 µM) it was 0.986; in the assay with U2OS [2] (0.0316912 µM), 0.984; with U2OS [2] (0.100144 µM), 0.968. The fractional viability with U2OS [2] (0.316456 µM) is 0.933; in the assay on U2OS [2] (1 µM) it was 0.879; in the assay with U2OS [2] (3.16 µM), 0.189. In addition, the “FV IC50” value in the assay with U2OS [3] was determined as 1970 nM. In addition, the “drug GRADE” value in the assay with U2OS [4] worked out at 20. Besides, the “normalized growth rate inhibition value” with U2OS [6] (0.000317827 µM) was 0.803; in the assay with U2OS [6] (0.00100433 µM), 0.812; in the assay with U2OS [6] (0.00317369 µM), 0.867; with U2OS [6] (0.0100289 µM), 0.776; in the assay on U2OS [6] (0.0316912 µM), 0.727; in the assay with U2OS [6] (0.100144 µM) it was 0.638. Also, the “normalized growth rate inhibition value” in the assay with U2OS [6] (0.316456 µM) is 0.457; in the assay with U2OS [6] (1 µM), 0.255; in the assay with U2OS [6] (3.16 µM), -0.534.
